Measured values taken from publication PMC4965013, “Open Source Drug Discovery with the Malaria Box Compound Collection for Neglected Diseases and Beyond” (PLoS Pathogens, 2016).
pEC50: −log10 of the molar value.

Key:
[1] = test system: P. falciparum 3D7 trophozoites; experiment: Metabolomic fingerprint profiling LC-MS; type: cell-based, Plasmodium falciparum; parameters: UDP-D-glucose / ADP-D-glucose: unit not given here
P. falciparum = experiment: EC50 listed in S2 Table Metabolomics (used to set the concentration tested); type: cell-based; settings: Plasmodium falciparum; EC50 used for Factor_XEC50 in metabolomics; read-out: EC50_nM
[2] = metabolite level change after treatment

## OC(CNC1CCCCC1)Cn1c2ccccc2c2ccccc21 (centres unmarked) [MMV009063]
[1]; S2 Table Metabolomics, metabolite Acetyllysine
  Acetyllysine: -0.9697
[1]; S2 Table Metabolomics, metabolite N-acetyl-L-ornithine
  N-acetyl-L-ornithine: -0.4154
[1]; S2 Table Metabolomics, metabolite N-carbamoyl-L-aspartate
  N-carbamoyl-L-aspartate: -0.3154
[1]; S2 Table Metabolomics, metabolite NADPH
  NADPH: 0.37
[1]; S2 Table Metabolomics, metabolite dAMP
  dAMP: 0.9178
[1]; S2 Table Metabolomics, metabolite dCMP
  dCMP: 4.938
[1]; S2 Table Metabolomics, metabolite dTDP
  dTDP: 0.7098
[1]; S2 Table Metabolomics, metabolite dTMP
  dTMP: 0.6703
[1]; S2 Table Metabolomics, metabolite dTTP
  dTTP: 1.896
[1]; S2 Table Metabolomics, metabolite dihydroorotate
  dihydroorotate: -0.3265
[1]; S2 Table Metabolomics, metabolite orotate
  orotate: -0.5164
[1]; S2 Table Metabolomics, peptide DLH
  DLH: -0.8674
[1]; S2 Table Metabolomics, peptide DLS/SDL/SID
  DLS/SDL/SID: -0.2423
[1]; S2 Table Metabolomics, peptide PD
  PD: -0.8841
[1]; S2 Table Metabolomics, peptide PEE
  PEE: -0.7244
[1]; S2 Table Metabolomics, peptide PVNF
  PVNF: -0.6115
[1]; metabolite 3-phosphoglycerate, S2 Table Metabolomics
  3-phosphoglycerate: 0.9312
[1]; metabolite ADP-D-glucose, S2 Table Metabolomics
  ADP-D-glucose: 0.2307
[1]; metabolite ATP, S2 Table Metabolomics
  ATP: 0.3671
[1]; metabolite CDP, S2 Table Metabolomics, change in metabolite level after compound treatment
  CDP: 0.5148
[1]; metabolite D-sedoheptulose-1/7-phosphate, S2 Table Metabolomics, change in metabolite level after compound treatment
  D-sedoheptulose-1/7-phosphate: -0.5559
[1]; metabolite FAD, S2 Table Metabolomics
  FAD: 0.5708
[1]; metabolite GMP, S2 Table Metabolomics, change in metabolite level after compound treatment
  GMP: 0.12
[1]; metabolite NAD+, S2 Table Metabolomics
  NAD+: -0.1605
[1]; metabolite NADP+, S2 Table Metabolomics
  NADP+: 0.3102
[1]; metabolite Octoluse Bisphosphate, S2 Table Metabolomics, change in metabolite level after compound treatment
  Octoluse Bisphosphate: 0.2421
[1]; metabolite Pyroglutamic acid, S2 Table Metabolomics
  Pyroglutamic acid: 0.1616
[1]; metabolite UDP-D-glucose, S2 Table Metabolomics
  UDP-D-glucose: 0.2936
[1]; metabolite UDP-D-glucuronate, S2 Table Metabolomics
  UDP-D-glucuronate: 0.2553
[1]; metabolite UDP-N-acetyl-glucosamine, S2 Table Metabolomics
  UDP-N-acetyl-glucosamine: 0.3811
[1]; metabolite UDP, S2 Table Metabolomics, change in metabolite level after compound treatment
  UDP: 0.491
[1]; metabolite UMP, S2 Table Metabolomics, change in metabolite level after compound treatment
  UMP: 0.4628
[1]; metabolite UTP, S2 Table Metabolomics, change in metabolite level after compound treatment
  UTP: 0.409
[1]; metabolite a-ketoglutarate, S2 Table Metabolomics
  a-ketoglutarate: -0.1494
[1]; metabolite citrate/isocitrate, S2 Table Metabolomics, change in metabolite level after compound treatment
  citrate/isocitrate: 0.2484
[1]; metabolite cytidine, S2 Table Metabolomics
  cytidine: 0.7064
[1]; metabolite dATP, S2 Table Metabolomics
  dATP: 0.1129
[1]; metabolite dGMP/AMP, S2 Table Metabolomics, change in metabolite level after compound treatment
  dGMP/AMP: 0.3842
[1]; metabolite fumarate, S2 Table Metabolomics, change in metabolite level after compound treatment
  fumarate: -0.3431
[1]; metabolite glucose-1/6-phosphate, S2 Table Metabolomics, change in metabolite level after compound treatment
  glucose-1/6-phosphate: 1.039
[1]; metabolite glycerate, S2 Table Metabolomics, change in metabolite level after compound treatment
  glycerate: 0.4301
[1]; metabolite guanine, S2 Table Metabolomics, change in metabolite level after compound treatment
  guanine: 0.4492
[1]; metabolite guanosine, S2 Table Metabolomics, change in metabolite level after compound treatment
  guanosine: 0.3938
[1]; metabolite hypoxanthine, S2 Table Metabolomics
  hypoxanthine: 0.2685
[1]; metabolite indole, S2 Table Metabolomics
  indole: -0.01895
[1]; metabolite inosine, S2 Table Metabolomics, change in metabolite level after compound treatment
  inosine: 0.305
[1]; [2]
  2_3-Diphosphoglyceric acid: 0.9003
  4-phosphopantothenate: 0.6116
  6-phospho-D-gluconate: 0.5165
  FMN: 0.5888
  IMP: 0.4443
  Pyrophosphate: -0.0661
  Sedoheptoluse bisphosphate: 0.4491
  cyclic-AMP: 0.4153
  glutathione disulfide: 0.4569
  lactate: 0.8013
  myo-inositol: 0.939
[1]; metabolite nicotinate, S2 Table Metabolomics
  nicotinate: 0.31
[1]; metabolite ornithine, S2 Table Metabolomics
  ornithine: 0.3762
[1]; metabolite phosphoenolpyruvate, S2 Table Metabolomics
  phosphoenolpyruvate: 0.7676
[1]; metabolite pyruvate, S2 Table Metabolomics, change in metabolite level after compound treatment
  pyruvate: 0.735
[1]; metabolite ribose-phosphate, S2 Table Metabolomics
  ribose-phosphate: 0.3548
[1]; metabolite sarcosine/alanine, S2 Table Metabolomics, change in metabolite level after compound treatment
  sarcosine/alanine: -0.09066
[1]; metabolite sn-glycerol-3-phosphate, S2 Table Metabolomics
  sn-glycerol-3-phosphate: 0.5324
[1]; metabolite succinate/methylmalonic acid, S2 Table Metabolomics, change in metabolite level after compound treatment
  succinate/methylmalonic acid: -0.07148
[1]; metabolite uridine, S2 Table Metabolomics, change in metabolite level after compound treatment
  uridine: 0.5909
[1]; metabolite xanthosine, S2 Table Metabolomics, change in metabolite level after compound treatment
  xanthosine: -0.08621
P. falciparum
  pEC50: 6.53
